Series [1] relates to Raw 264.7 cells infected with H37Rv-GFP. The experiment in a line: microbe, parasite or virus in culture. The format is cell-based, M. tuberculosis. As to conditions: for MIC50: Mycobacterium tuberculosis, H37RV, 120 h, read-out: QIM (MIC50).
For series [2], the system named is M. tuberculosis H37Rv expressing the green fluorescent protein (H37Rv-GFP). The experiment in a line: microbe, parasite or virus in culture. The format is cell-based. As to conditions: for MIC50: Mycobacterium tuberculosis, H37RV, 120 h, read-out: QUM (MIC50).

Values after ≈ are worked out from the molar mass of the structure shown.

The melting point is the temperature of the solid-liquid transition.

`Cn1cnc2ccc(NC(=O)c3cc4sc(N5CCOCC5)nc4s3)cc21` [Compound 117] returned a melting point of 314 °C. Besides, in series [1], the MIC50 was > 20 µM. In addition, the MIC50 in series [2] was > 20 µM.
`O=C(Nc1ccc(N2CCC(Cc3ccc(F)cc3)CC2)cc1)c1cc2sc(N3CCOCC3)nc2s1` [Compound 183]: the melting point came out at 246 °C. Moreover, the MIC50 in series [1] was < 1 µM. Also, the MIC50 in series [2] was > 20 µM.
With `COc1ccc(NC(=O)c2cc3nc(N4CCCCC4)sc3s2)cn1` [Compound 10], the melting point turned out to be 270 °C. Besides, the MIC50 in series [1] is > 20 µM. Also, in series [2], the MIC50 was > 20 µM.
In the case of `COC(=O)c1ccc(N(C)C(=O)c2cc3nc(N4CCCCC4)sc3s2)cc1` [Compound 31], the melting point worked out at 178.5 °C. The MIC50 in series [2] was > 20 µM.
`Cc1nc2ccc(NC(=O)c3cc4sc(N5CCOCC5)nc4s3)cc2o1.Cl` [Compound 86] gave a melting point of 272.2 °C. Further, the “QIM (MIC50, uM)” value in series [1] was “+++ (+++ indicates <1 uM)”. The “QUM (MIC50, uM)” value in series [2] was “+++ (+++ indicates <1 uM)”.
On to `O=C(Nc1ccc(F)cc1)c1cc2sc(N3CCC(O)CC3)nc2s1` [Compound 134], for which the melting point amounted to 241.7 °C. Further, in series [1], the MIC50 was < 1 µM. Besides, the MIC50 in series [2] was < 1 µM.
In the case of `O=C(Nc1ccc(-c2ccccc2)cc1)c1cc2sc(N3CCCCC3)nc2s1` [Compound 39], the melting point worked out at 231.1 °C. In addition, in series [1], the MIC50 was < 1 µM. In series [2], the MIC50 was > 20 µM.
Take `Cc1nc2cc(NC(=O)c3cc4sc(N5CC(C)OC(C)C5)nc4s3)ccc2o1` (centres unmarked) [Compound 180]: the melting point was found to be 274 °C. The MIC50 in series [1] was < 1 µM. The MIC50 in series [2] is 1 to 20 µM (≈ 0.429 to 8.57 µg/mL).
As to `COc1ccc(C(=O)Nc2cc3sc(N4CCCCC4)nc3s2)cc1` [Compound 98], the melting point is 92 °C. Besides, the MIC50 in series [1] is > 20 µM. Also, in series [2], the MIC50 was > 20 µM.
For the molecule `O=C(Nc1ccc(F)cc1)c1cc2sc(N3CCNCC3)nc2s1` [Compound 139], the melting point was 247.5 °C. In series [1], the MIC50 lay within 1 to 20 µM (≈ 0.362 to 7.25 µg/mL). For the same molecule, the MIC50 in series [2] was in the range of 1 to 20 µM (≈ 0.362 to 7.25 µg/mL).
Molecule `COCn1c(N2CCOCC2)nc2sc(C(=O)Nc3ccc4oc(C)nc4c3)cc21` [Compound 179] yielded a melting point of 117.2 °C. Moreover, in series [1], the MIC50 is > 20 µM. In series [2], the MIC50 was > 20 µM.
`Cc1nc2cc(NC(=O)c3cc4sc(N5CCC(O)CC5)nc4s3)ccc2o1` [Compound 122] gave a melting point of 238.5 °C. The MIC50 in series [1] is < 1 µM. In series [2], the MIC50 is < 1 µM.
With `Cc1nc2cc(NC(=O)C3CCc4nc(N5CCOCC5)sc4C3)ccc2o1` (centres unmarked) [Compound 170], the melting point was determined as 239 °C. Also, the MIC50 in series [1] is > 20 µM. In addition, in series [2], the MIC50 is > 20 µM.
Consider `Cc1ccc(-c2ccc(NC(=O)c3cc4sc(N5CCOCC5)nc4s3)cc2)cn1` [Compound 161], for which the melting point stood at 292 °C. In addition, the MIC50 in series [1] is < 1 µM. The MIC50 in series [2] was > 20 µM.
On to `Cc1nc2cc(NC(=O)c3cc4sc(N5CCC(COc6ccc(Cl)cc6)CC5)nc4s3)ccc2o1` [Compound 195], for which the melting point is 256 °C. Also, the MIC50 in series [1] was < 1 µM. Besides, in series [2], the MIC50 was > 20 µM.
In the case of `O=C(Nc1ccc(OC(F)(F)F)cc1)c1cc2nc(N3CCCCC3)sc2s1` [Compound 14], the melting point was 238 °C. Also, the MIC50 in series [1] is < 1 µM. The MIC50 in series [2] is 1 to 20 µM (≈ 0.427 to 8.55 µg/mL).
As to `COc1ccc(CNC(=O)c2cc3sc(N4CCCCC4)nc3s2)cc1` [Compound 59], the melting point is 142 °C. Besides, the MIC50 in series [1] was > 20 µM. In addition, the MIC50 in series [2] was > 20 µM.
As to `O=C(Nc1ccc(-c2cc[nH]n2)cc1)c1cc2sc(N3CCOCC3)nc2s1` [Compound 156], the melting point stood at 319 °C. Besides, the MIC50 in series [1] is < 1 µM. Also, in series [2], the MIC50 fell in the range of 1 to 20 µM (≈ 0.412 to 8.23 µg/mL).
`COc1cc(NC(=O)c2cc3sc(N4CCCCC4)nc3s2)cc(OC)c1` [Compound 37]: the melting point was 148 °C. The MIC50 in series [1] was > 20 µM. Further, in series [2], the MIC50 was > 20 µM.
The molecule `Cc1nnc(-c2ccc(NC(=O)c3cc4sc(N5CCOCC5)nc4s3)cc2Cl)o1` [Compound 148] showed a melting point of 248 °C. Further, the MIC50 in series [1] was > 20 µM. Moreover, the MIC50 in series [2] is > 20 µM.
For `CCC1COCCN1c1nc2sc(C(=O)Nc3ccc4oc(C)nc4c3)cc2s1` (centres unmarked) [Compound 151], the melting point was determined as 176 °C. The MIC50 in series [1] is < 1 µM. Besides, the MIC50 in series [2] lay in the range of 1 to 20 µM (≈ 0.429 to 8.57 µg/mL).
With `O=C1Cc2cc(NC(=O)c3cc4nc(N5CCCCC5)sc4s3)ccc2N1` [Compound 23], the melting point worked out at 260 °C. The MIC50 in series [1] was > 20 µM. The MIC50 in series [2] is > 20 µM.
`COc1ccc(NC(=O)c2cc3sc(N4CCC(Oc5ccccc5)CC4)nc3s2)cc1` [Compound 106] showed a melting point of 225 °C. In series [1], the MIC50 is < 1 µM. Further, in series [2], the MIC50 was > 20 µM.
`O=C(Nc1ccc(C(F)(F)F)cc1)c1cc2nc(N3CCCCC3)sc2s1` [Compound 33] came in with a melting point of 228.6 °C. The MIC50 in series [2] is > 20 µM.
`O=C(Nc1cccc(OCc2ccccc2)c1)c1cc2sc(N3CCOCC3)nc2s1` [Compound 109] showed a melting point of 223.4 °C. In addition, the MIC50 in series [1] is > 20 µM. The MIC50 in series [2] is > 20 µM.
For `O=C(Nc1ccc(OCc2ccccc2)cc1)c1cc2nc(N3CCCCC3)sc2s1` [Compound 11], the melting point is 223 °C. Further, the MIC50 in series [1] was > 20 µM. Further, the MIC50 in series [2] was > 20 µM.
Turning to `O=C(Nc1ccc(Oc2ccccc2)cc1)c1cc2sc(N3CCCCC3)nc2s1` [Compound 61], the melting point came to 201 °C. Besides, the MIC50 in series [1] was < 1 µM. For the same molecule, the MIC50 in series [2] is 1 to 20 µM (≈ 0.436 to 8.71 µg/mL).
With `CCOC(=O)c1ccc(NC(=O)c2cc3sc(N4CCOCC4)nc3s2)cc1` [Compound 108], the melting point was 274 °C. Moreover, in series [1], the MIC50 is < 1 µM. In addition, in series [2], the MIC50 is 1 to 20 µM (≈ 0.418 to 8.35 µg/mL).
`Cc1nc2c(NC(=O)c3cc4sc(N5CCOCC5)nc4s3)cccc2o1` [Compound 102] displayed a melting point of 209.3 °C. Besides, the MIC50 in series [1] was > 20 µM. Moreover, the MIC50 in series [2] was > 20 µM.
With `Cc1nc2cc(NC(=O)c3cc4sc(N5CCC(C(=O)NCc6ccccc6)CC5)nc4s3)ccc2o1` [Compound 186], the melting point was determined as 264.9 °C. Besides, the MIC50 in series [1] was < 1 µM. Besides, in series [2], the MIC50 is > 20 µM.
`COc1ccc(NC(=O)c2cc3sc(NCc4ccc(OC)nc4)nc3s2)cc1` [Compound 104] gave a melting point of 230.9 °C. Besides, the MIC50 in series [1] was < 1 µM. In addition, the MIC50 in series [2] was < 1 µM.
Consider `O=C(Nc1ccn(-c2ccccc2)n1)c1cc2sc(N3CCOCC3)nc2s1` [Compound 165], for which the melting point was 257.8 °C. Moreover, the MIC50 in series [1] was in the range of 1 to 20 µM (≈ 0.412 to 8.23 µg/mL). In addition, the MIC50 in series [2] was > 20 µM.
`O=C(Nc1ccc(O)cc1)c1cc2sc(N3CCCCC3)nc2s1` [Compound 97]: the melting point stood at 246 °C. Moreover, in series [1], the MIC50 was 1 to 20 µM (≈ 0.359 to 7.19 µg/mL). Also, the MIC50 in series [2] was 1 to 20 µM (≈ 0.359 to 7.19 µg/mL).
Molecule `O=C(Nc1ccc2ncccc2c1)c1cc2sc(N3CCCCC3)nc2s1` [Compound 40] yielded a melting point of 279.5 °C. Moreover, in series [1], the MIC50 is < 1 µM. In addition, the MIC50 in series [2] lay within 1 to 20 µM (≈ 0.395 to 7.89 µg/mL).
The molecule `Cc1nc2ccc(NC(=O)c3cc4nc(N5CCCCC5)sc4s3)cc2o1` [Compound 34] came in with a melting point of 213 °C. The MIC50 in series [2] was > 20 µM.
In turn, `COC(=O)C1CCC(NC(=O)c2cc3nc(N4CCCCC4)sc3s2)CC1` (centres unmarked) [Compound 30] gave a melting point of 191 °C. Besides, the MIC50 in series [2] is > 20 µM.
For `O=C(Nc1ccc(F)cn1)c1cc2sc(NCCN3CCOCC3)nc2s1` [Compound 335], the MIC50 in series [1] and in series [2] was 1 to 20 µM (≈ 0.407 to 8.15 µg/mL) throughout.
Take `Cc1ccc(-c2ccc(NC(=O)c3cc4sc(N5CCNCC5)nc4s3)cc2)nc1` [Compound 346]: the MIC50 was < 1 µM in series [1] and 1 to 20 µM (≈ 0.436 to 8.71 µg/mL) in series [2].
For `Cc1nc2cc(NC(=O)c3cc4sc(N(C)CCN5CCOCC5)nc4s3)ccc2o1` [Compound 225] the same measures were < 1 µM and 1 to 20 µM (≈ 0.458 to 9.15 µg/mL).
On to `COc1ccc(CN2CCN(c3nc4sc(C(=O)Nc5ccc(OC)cc5)cc4s3)CC2)cc1` [Compound 91], for which the MIC50 in series [1] is < 1 µM; in series [2], > 20 µM.
On to `Cc1nc2cc(NC(=O)c3cc4sc(N5CCC(NC(=O)OC(C)(C)C)CC5)nc4s3)ccc2o1` [Compound 233], for which the MIC50 in series [1] is < 1 µM; in series [2], 1 to 20 µM (≈ 0.514 to 10.3 µg/mL).
Take `CC(C)(C)CC(=O)NC1CCN(c2nc3sc(C(=O)Nc4ccc(-c5ccc(F)cn5)cc4)cc3s2)CC1` [Compound 349]: the MIC50 in series [1] was < 1 µM; in series [2] it was > 20 µM.
For the molecule `COc1ccc(NC(=O)c2cc3sc(N4CCC(O)CC4)nc3s2)cc1` [Compound 76], the MIC50 in series [1] and in series [2] was < 1 µM throughout.
`O=C(Nc1ccc(OCc2ccccc2)cc1)c1cc2sc(N3CCCCC3)nc2s1` [Compound 44]: the figures for the MIC50 in series [1] and in series [2] were < 1 µM and > 20 µM, respectively.
Regarding `CN(C)C(=O)C1CCN(c2nc3sc(C(=O)Nc4ccc(-c5ccn(C)n5)cc4)cc3s2)CC1` [Compound 203], the MIC50 in series [1] and in series [2] was < 1 µM each time.
With `COc1ccc(-c2ccc(NC(=O)c3cc4sc(NCCN5CCOCC5)nc4s3)cc2)cn1` [Compound 292], the results for the MIC50 in series [1] and in series [2] were < 1 µM and 1 to 20 µM (≈ 0.496 to 9.91 µg/mL), respectively.
The corresponding values for `CN(CCO)c1nc2sc(C(=O)Nc3ccc(N4CCC(Oc5ccc(F)cc5)CC4)cc3)cc2s1` [Compound 250] are < 1 µM and > 20 µM.
On to `O=C(Nc1ccc(F)cc1)c1cc2sc(NC3CCCN(c4ccc(F)cc4)C3)nc2s1` (centres unmarked) [Compound 318], for which the values for the MIC50 in series [1] and in series [2] were < 1 µM and > 20 µM, respectively.

Source of the values: patent publication US11279714B2, “Anti-infective compounds” (priority 2014, dated 2022).
